What was measured:
[1] = system: MV522 human non-small cell lung tumor xenograph model; assay: Example 1: MV522 xenograft, NPI-2358 single agent and with docetaxel (TGI/TGD); type: in vivo, athymic nu/nu mice
Description: In vivo evaluation of plinabulin (NPI-2358) as a single agent and in combination with docetaxel in the MV522 human non-small cell lung tumor xenograph model in athymic nu/nu mice
The objective of the example was to determine potential additive or synergistic effects of plinabulin in combination with docetaxel in the MV522 model by exploring the scheduling of the drug combination explored by administering one of the agents 2 hours after the first drug was given. Significant endpoints for this experiment included mean tumor growth inhibition (TGI) or regression, tumor growth delay (TGD) in large tumor, weight loss, and mortality.
(§1) Female nude mice (Hsd: Athymic Nude-Foxn1^nu) between 5 and 6 weeks of age weighing approximately 20 grams were obtained from Harlan, Inc. (Madison, Wis.). MV522 is a conventional human NSC metastatic lung tumor cell line (U.S. Pat. No. 7,700,615 or 7,629,380). Animals were injected subcutaneously (SC) with approximately 1×10^7 MV522 cells harvested from tissue culture. When tumors grew to approximately 105 cubic millimeters (mm^3) in size (3 days following implantation), animals were pair-matched by tumor size into treatment and control groups; each treatment group contained eight mice. Animals were ear-tagged and followed individually throughout the experiment.
(§2) Initial doses were administered on Day 1 following pair-matching. The experiment was carried out as a tumor growth inhibition (TGI) and tumor growth delay (TGD) study. Group 1 endpoint was when tumor volume reached 1.2 cm^3 (TGI) and the treated groups endpoint was when each individual animal's tumor volume reached 1.5 cm^3 (TGD). […] To serve as negative controls, NPI-2358 vehicle and docetaxel vehicle were injected IP on a 2×WKLY×3 schedule and IV on a Q2D×3 schedule, respectively. Docetaxel was administered by intravenous (IV) injection via tail vein at 15 mg/kg once every other day for three treatments (Q2D×3) or at 25 mg/kg on a Q7D×3 schedule (every 7 day for three treatment). Docetaxel and docetaxel vehicle were administered two hours prior to NPI-2358 vehicle and NPI-2358, respectively, in Groups 7-9 and 12-14. For Groups 10, 11, 15, and 16, NPI-2358 was given two hours prior to docetaxel.
Mice were weighed and caliper tumor measurements taken. Tumor growth inhibition (TGI) values were calculated for each group containing treated animals using the formula below: […]
Animals experiencing complete tumor responses or animals experiencing technical or drug-related deaths were censored from final TGI calculations; however animals experiencing partial tumor responses were included in the final TGI calculations. […] TGI values for each treatment group are reported at study completion; these calculations are based on the final study day.
This arm of the study was ended on Day 74 at the sponsor's request. […] Upon TGD study completion, a Median Day of Sacrifice (MDS) was calculated for the control (C) and each treatment (T) group and used to determine tumor growth delay (T-C) using the following equations: MDS=Median [ΣIDS] T−C=MDSTreated−MDSControl
Where IDS (Individual Day of Sacrifice) is the day when each animal reached its tumor volume endpoint (1.5 cm^3); only animals reaching this endpoint were included in TGD calculations. Gross or net log10 cell kill for each treatment group was determined using the following equations: […]

[2] = Description: as §1, §2
Individual and group mean weights ±SD and percent weight change were recorded twice weekly until study completion beginning Day 1. Group weights on Day 42 and weight nadir values are reported.
Animals were observed twice weekly for general moribundity and daily for mortality.

[3] = G5: NPI-2358 3.75 mg/kg IP 2xWKLYx3

For CC(C)(C)c1[nH]cnc1/C=c1\[nH]c(=O)/c(=C/c2ccccc2)[nH]c1=O [NPI-2358], the “#CR (Day 25)” value [1, 3] was 0/0, the “#CR (TGD study)” value [1, 3] was 0/0 and the “#LTS (long-term survivors)” value [1, 3] was 0. For the same compound, the “#PR (Day 25)” value [1, 3] was 0/0, the “#PR (TGD study)” value [1, 3] was 0/0 and the “% TGI” value [1, 3] was 2%. For the same compound, the “Final tumor volume (Day 25) mean ± SEM” value [1, 3] was 1347 ± 82 mm^3, the Log10 cell kill [1, 3] was 0.0 and the “T-C (tumor growth delay)” value [1, 3] was 0. For the same compound, the “MDS day ± SD” value ([1]; G5: NPI-2358 3.75 mg/kg IP 2xWKLYx3, endpoint 1.5 cm^3) was 29 ± 2 days, the “Tumor volume / tumor burden compared to vehicle control” value ([1]; single agent, Example 1) was “slight decrease in tumor volume” and the “Final weight (Day 25) % change” value [2, 3] was “+15%”. The “Final weight (Day 25) mean ± SD” value [2, 3] was 23 ± 1 g, the “Weight nadir % change” value [2, 3] was 0% and the Weight nadir day [2, 3] was 1. For the same compound, the Animal weight loss ([2]; single agent groups, Example 1, given doses and schedule) was “No significant animal weight loss”.
